Assay [1] concerns the target T1, HDAC1/MTA1(aa: 162–546)/RBBP4 core NuRD complex (HMR) (Homo sapiens, UniProt Q09028+Q13330+Q13547).
T1 construct: made in house; host or cells: HEK293F
Description: Boc-Lys HDAC inhibition assay. In kind it is biochemical. The conditions noted are these: 50 nM complex, 100 μM Boc-(Ac)Lys-AMC, 37 °C 30 min, technical replicates N = 2. The method, then: (§1) Inhibition assays with various peptide inhibitors were performed using a fluorescence-based assay. The inhibitor peptides were initially dissolved in 5% dimethyl sulfoxide (DMSO) at a stock concentration of 25 mM before being further diluted in the HDAC assay buffer (50 mM Tris/HCl, pH 7.5, 150 mM NaCl). Serial dilutions (1:3) of the inhibitor were prepared, starting at a concentration of 500 μM. HDAC complexes were diluted to a final concentration of 50 nM and incubated with the inhibitor for 20 min at rt. The Boc-(Ac)Lys-AMC substrate was added at a final concentration of 100 μM The final volume of the reaction was 50 μL. The reaction was incubated at 37 °C, 150 rpm, for 30 min, before a developer (50 mM Tris, pH 7.5, 100 mM NaCl, 10 mg/mL trypsin) was added. The reaction was incubated with the developer for 10 min before being measured (PerkinElmer, 2030 multilabel reader, VICTOR X5, excitation 335 nm, emission 460 nm). The absorbance of the buffer as the blank control was subtracted from the HDAC activity, and IC50 calculations were performed using the nonlinear regression log(inhibitor) vs response equation Y = bottom + (top – bottom)/(1+10^(X–Log IC50)) in Graphpad Prism 9.

Assay [2] has as its target T2, HMR complex (Homo sapiens, UniProt Q09028+Q13330+Q13547).
T2 construct: made in house; host or cells: HEK293F
Description: Fluorescence polarization binding assay. The conditions noted are these: 10 nM FTU-labeled peptide, increasing HMR, 30 min rt; one-site binding fit; technical replicates N = 2; read-out: KD of Fluorescein-labelled peptides against HMR. The method, then: We aimed first to validate the results of the activity assay with the hydroxamic acid-containing peptides in terms of binding kinetics. To this end, we designed and synthesized fluorescein-labeled analogues (FTU) of the key peptides identified from the inhibition assay: FTU-H3(6−12)K9Hd 17, FTU-H3(23–29)K27Hd 18, FTU-H4(8−14)K12Hd 19, and FTU-H4(12−18)K16Hd 20. […] These peptides were then tested in an FP assay to measure their binding affinity for the HMR complex (Figure 2D).
The fluorescence polarization assay was performed using 96-well black plates (Corning). FTU (10 nM)-labeled peptides (peptides 17–20) were incubated with increasing concentrations of HMR for 30 min at rt. The plate was shaken before being read on a Victor X5 Plate reader (Perkin Elmer). […] values were calculated using the nonlinear regression one-site binding equation Y = Bmax × X/(KD + X) using Graphpad Prism 9.

Assay [3] has as its target T3, MIER1 complex (Homo sapiens, UniProt Q13547+Q8N108).
T3 construct: made in house; host or cells: HEK293F
Description: Boc-Lys HDAC inhibition assay. The conditions noted are these: HDAC complexes tables; 50 nM complex, 100 μM Boc-(Ac)Lys-AMC, 37 °C 30 min; technical replicates N = 2. It counts as biochemical.
Source text: (§2) Finally, we directed our attention toward assessing how the results from the experiments with HMR would be common to the other known class I HDAC corepressor complexes. RERE, MIER1, CoREST, HMR, MiDAC, Sin3A, and SMRT were expressed and purified, and the concentrations were normalized based on the concentration of HDAC1 or HDAC3 (Figure 4A). We determined the potency of H3(23–29)K27Hd 12 and H4(12–18)K16Hd 16 against RERE, MIER1, CoREST, NuRD, MiDAC, Sin3A, and SMRT (Figure 4B). In addition, we repeated the H3(23–29)K27Hd alanine scan experiment for each of these complexes to assess whether or not the importance of Lys23 for maintaining potency against HMR was replicated across the other complexes (Figure 4C).
as §1

Assay [4] deals with T4, MiDAC complex (Homo sapiens, UniProt Q13547+Q6PJG2+Q9H147).
T4 construct: made in house; host or cells: HEK293F
In words: Boc-Lys HDAC inhibition assay. The conditions noted are these: HDAC complexes tables; 50 nM complex, 100 μM Boc-(Ac)Lys-AMC, 37 °C 30 min; technical replicates N = 2. In kind it is biochemical.
Source text: as §2, §1

Assay [5] addresses T5, RERE complex (Homo sapiens, UniProt Q13547+Q9P2R6).
T5 construct: made in house; host or cells: HEK293F
In words: Boc-Lys HDAC inhibition assay. The conditions noted are these: HDAC complexes tables; 50 nM complex, 100 μM Boc-(Ac)Lys-AMC, 37 °C 30 min; technical replicates N = 2. In kind it is biochemical.
Source text: as §2, §1

The target in assay [6] is T6, SMRT complex (HDAC3) (Homo sapiens, UniProt O15379).
T6 construct: made in house; host or cells: HEK293F
Description: Boc-Lys HDAC inhibition assay. It counts as biochemical. The conditions noted are these: HDAC complexes tables; 50 nM complex, 100 μM Boc-(Ac)Lys-AMC, 37 °C 30 min; technical replicates N = 2.
Source text: as §2, §1

Assay [7] concerns the target T7, Sin3A complex (Homo sapiens, UniProt Q13547).
T7 construct: made in house; host or cells: HEK293F
Description: Boc-Lys HDAC inhibition assay. The conditions noted are these: HDAC complexes tables; 50 nM complex, 100 μM Boc-(Ac)Lys-AMC, 37 °C 30 min; technical replicates N = 2. In kind it is biochemical.
Source text: as §2, §1

Assay [8] addresses T8, CoREST complex (Homo sapiens, UniProt Q13547+Q9UKL0).
T8 construct: made in house; host or cells: HEK293F
In words: Boc-Lys HDAC inhibition assay. It counts as biochemical. The conditions noted are these: HDAC complexes tables; 50 nM complex, 100 μM Boc-(Ac)Lys-AMC, 37 °C 30 min; technical replicates N = 2.
Source text: as §2, §1

[9] abbreviates: alanine scan / H4K12Hd experiments, 20 min preincubation rt, read-out: IC50 of HMR against H3 K27Hd, H4 K16Hd and H4K12Hd peptides.

This is an account of results in PMC9488896, “Hydroxamic Acid-Modified Peptide Library Provides Insights into the Molecular Basis for the Substrate Selectivity of HDAC Corepressor Complexes” (ACS Chemical Biology, 2022).

Like-named read-outs stand apart in the source and are kept apart here. Residues, ends and D or L forms follow the SMILES beside them.

T6 sequence (O15379 whole entry, species assumed, one chain of several): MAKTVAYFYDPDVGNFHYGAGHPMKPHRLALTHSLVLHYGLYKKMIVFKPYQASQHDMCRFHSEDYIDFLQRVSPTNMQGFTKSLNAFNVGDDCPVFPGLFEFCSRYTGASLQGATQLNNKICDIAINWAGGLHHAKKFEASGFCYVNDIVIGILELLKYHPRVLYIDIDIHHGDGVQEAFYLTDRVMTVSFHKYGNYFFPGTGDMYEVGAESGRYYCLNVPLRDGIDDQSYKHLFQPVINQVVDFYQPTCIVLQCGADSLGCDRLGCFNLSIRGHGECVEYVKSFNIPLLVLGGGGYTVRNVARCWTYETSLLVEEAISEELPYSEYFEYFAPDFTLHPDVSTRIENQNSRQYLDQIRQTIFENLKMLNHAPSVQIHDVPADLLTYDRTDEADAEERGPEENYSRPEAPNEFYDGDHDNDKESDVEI
T1 sequence (Q13547 whole entry, species assumed): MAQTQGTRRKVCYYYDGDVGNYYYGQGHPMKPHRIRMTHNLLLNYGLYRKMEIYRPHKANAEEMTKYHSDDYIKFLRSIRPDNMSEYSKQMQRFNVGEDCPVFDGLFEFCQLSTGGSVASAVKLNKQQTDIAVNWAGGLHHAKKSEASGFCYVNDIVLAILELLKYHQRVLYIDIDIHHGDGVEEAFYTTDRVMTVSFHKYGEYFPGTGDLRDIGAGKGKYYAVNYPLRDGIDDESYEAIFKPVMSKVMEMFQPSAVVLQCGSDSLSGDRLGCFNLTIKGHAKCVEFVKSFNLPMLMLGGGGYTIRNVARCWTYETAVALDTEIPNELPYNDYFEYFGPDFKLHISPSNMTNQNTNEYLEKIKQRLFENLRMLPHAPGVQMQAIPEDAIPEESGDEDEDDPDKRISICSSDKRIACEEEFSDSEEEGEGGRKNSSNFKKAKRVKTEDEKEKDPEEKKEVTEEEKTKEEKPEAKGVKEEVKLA
T1 sequence (Q13330 162-546 partner limits assumed, species assumed): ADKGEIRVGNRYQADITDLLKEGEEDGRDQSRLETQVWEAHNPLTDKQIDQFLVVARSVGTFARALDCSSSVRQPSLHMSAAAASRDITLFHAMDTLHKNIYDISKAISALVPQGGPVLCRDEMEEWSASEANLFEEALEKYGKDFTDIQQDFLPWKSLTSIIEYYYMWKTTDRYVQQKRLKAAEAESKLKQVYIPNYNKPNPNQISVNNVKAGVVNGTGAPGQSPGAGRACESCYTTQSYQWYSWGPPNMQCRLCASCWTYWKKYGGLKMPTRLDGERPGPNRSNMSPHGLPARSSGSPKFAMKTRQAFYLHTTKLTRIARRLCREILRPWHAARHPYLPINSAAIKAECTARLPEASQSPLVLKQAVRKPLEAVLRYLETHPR
T1 sequence (Q09028 whole entry partner, species assumed): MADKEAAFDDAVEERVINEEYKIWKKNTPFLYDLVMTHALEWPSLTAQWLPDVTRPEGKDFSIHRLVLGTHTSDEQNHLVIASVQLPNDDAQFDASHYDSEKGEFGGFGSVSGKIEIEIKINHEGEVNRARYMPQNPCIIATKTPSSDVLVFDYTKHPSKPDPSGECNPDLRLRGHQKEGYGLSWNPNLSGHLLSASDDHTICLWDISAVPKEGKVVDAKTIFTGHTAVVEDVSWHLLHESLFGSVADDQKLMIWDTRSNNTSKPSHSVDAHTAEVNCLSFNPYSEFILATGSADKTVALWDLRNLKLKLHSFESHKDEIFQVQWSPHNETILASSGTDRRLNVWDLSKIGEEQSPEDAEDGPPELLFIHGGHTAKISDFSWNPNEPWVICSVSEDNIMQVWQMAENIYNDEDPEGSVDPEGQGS
T5 sequence (Q13547 whole entry): as the sequence (Q13547 whole entry, species assumed) above
T5 sequence (Q9P2R6 whole entry partner): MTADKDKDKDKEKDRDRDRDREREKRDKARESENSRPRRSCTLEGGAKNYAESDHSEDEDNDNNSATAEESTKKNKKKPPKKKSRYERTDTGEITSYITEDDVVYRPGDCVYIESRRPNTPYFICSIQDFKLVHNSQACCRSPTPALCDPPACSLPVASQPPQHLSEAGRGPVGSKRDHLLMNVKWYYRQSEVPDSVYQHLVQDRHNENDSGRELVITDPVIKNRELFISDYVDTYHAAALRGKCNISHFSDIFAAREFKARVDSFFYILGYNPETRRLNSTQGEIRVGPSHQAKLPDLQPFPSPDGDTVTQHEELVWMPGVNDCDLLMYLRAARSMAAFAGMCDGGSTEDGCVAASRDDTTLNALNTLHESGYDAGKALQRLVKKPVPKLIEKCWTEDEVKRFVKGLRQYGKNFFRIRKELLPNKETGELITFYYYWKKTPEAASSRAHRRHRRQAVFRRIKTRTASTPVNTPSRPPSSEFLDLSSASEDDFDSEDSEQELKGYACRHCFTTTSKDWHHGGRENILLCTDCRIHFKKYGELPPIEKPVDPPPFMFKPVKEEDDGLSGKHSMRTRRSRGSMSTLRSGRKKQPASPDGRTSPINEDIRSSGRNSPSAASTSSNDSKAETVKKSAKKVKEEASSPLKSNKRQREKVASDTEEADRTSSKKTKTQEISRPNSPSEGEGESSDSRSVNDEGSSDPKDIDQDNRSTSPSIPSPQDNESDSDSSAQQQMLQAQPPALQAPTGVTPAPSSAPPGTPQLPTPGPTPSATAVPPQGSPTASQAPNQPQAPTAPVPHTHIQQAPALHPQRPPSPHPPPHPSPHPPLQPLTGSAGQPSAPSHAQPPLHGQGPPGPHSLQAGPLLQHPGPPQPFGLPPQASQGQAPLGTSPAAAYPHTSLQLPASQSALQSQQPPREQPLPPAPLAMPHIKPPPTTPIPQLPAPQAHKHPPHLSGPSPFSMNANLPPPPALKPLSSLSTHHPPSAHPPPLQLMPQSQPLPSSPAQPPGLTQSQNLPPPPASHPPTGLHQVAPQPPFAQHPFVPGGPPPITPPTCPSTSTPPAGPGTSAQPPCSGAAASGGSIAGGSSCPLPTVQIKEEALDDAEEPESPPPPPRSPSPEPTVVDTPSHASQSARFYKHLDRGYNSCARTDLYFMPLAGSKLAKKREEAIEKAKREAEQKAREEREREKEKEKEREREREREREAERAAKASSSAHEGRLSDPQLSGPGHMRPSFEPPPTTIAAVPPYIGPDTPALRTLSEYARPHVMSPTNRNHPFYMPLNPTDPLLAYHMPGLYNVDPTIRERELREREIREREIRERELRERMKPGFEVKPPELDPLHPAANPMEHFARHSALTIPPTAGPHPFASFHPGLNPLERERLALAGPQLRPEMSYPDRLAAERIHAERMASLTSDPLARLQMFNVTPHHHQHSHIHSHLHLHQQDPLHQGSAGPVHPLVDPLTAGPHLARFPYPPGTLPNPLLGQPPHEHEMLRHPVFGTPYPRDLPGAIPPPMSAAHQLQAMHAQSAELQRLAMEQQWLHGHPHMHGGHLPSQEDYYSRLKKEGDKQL
T3 sequence (Q13547 whole entry): as the sequence (Q13547 whole entry, species assumed) above
T3 sequence (Q8N108 whole entry partner): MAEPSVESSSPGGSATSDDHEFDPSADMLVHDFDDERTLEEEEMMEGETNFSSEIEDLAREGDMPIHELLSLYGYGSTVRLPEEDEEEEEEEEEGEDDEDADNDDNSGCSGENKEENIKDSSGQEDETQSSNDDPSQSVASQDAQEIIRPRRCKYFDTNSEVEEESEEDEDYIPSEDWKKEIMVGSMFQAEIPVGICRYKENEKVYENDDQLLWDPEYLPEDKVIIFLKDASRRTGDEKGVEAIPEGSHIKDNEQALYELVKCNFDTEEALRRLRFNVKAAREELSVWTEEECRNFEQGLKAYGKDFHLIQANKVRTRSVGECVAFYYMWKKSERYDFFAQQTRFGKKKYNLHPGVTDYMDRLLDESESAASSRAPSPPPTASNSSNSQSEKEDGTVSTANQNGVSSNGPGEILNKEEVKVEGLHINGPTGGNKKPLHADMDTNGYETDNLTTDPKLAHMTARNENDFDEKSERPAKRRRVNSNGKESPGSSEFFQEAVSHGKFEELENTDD
T4 sequence (Q13547 whole entry): as the sequence (Q13547 whole entry, species assumed) above
T4 sequence (Q6PJG2 628-887 partner limits assumed): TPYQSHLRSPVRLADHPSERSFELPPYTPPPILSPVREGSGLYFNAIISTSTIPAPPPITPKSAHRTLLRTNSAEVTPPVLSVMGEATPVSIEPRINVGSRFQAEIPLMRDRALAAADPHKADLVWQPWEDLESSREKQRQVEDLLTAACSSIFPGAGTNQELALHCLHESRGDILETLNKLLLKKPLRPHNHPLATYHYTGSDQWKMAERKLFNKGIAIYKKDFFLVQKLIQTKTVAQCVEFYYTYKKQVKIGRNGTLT
T4 sequence (Q9H147 whole entry partner): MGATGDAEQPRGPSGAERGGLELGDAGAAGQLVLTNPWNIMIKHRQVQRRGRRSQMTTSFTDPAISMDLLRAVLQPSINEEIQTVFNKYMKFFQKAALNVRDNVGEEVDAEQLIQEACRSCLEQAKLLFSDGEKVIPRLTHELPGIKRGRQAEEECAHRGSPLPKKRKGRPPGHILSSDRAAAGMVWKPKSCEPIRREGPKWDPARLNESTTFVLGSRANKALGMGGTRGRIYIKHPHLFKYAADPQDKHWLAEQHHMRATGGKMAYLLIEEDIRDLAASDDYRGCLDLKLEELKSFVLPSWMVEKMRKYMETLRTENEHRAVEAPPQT
T8 sequence (Q13547 whole entry, other chains not shown): as the sequence (Q13547 whole entry, species assumed) above
T8 sequence (Q9UKL0 86-485 partner limits assumed, other chains not shown): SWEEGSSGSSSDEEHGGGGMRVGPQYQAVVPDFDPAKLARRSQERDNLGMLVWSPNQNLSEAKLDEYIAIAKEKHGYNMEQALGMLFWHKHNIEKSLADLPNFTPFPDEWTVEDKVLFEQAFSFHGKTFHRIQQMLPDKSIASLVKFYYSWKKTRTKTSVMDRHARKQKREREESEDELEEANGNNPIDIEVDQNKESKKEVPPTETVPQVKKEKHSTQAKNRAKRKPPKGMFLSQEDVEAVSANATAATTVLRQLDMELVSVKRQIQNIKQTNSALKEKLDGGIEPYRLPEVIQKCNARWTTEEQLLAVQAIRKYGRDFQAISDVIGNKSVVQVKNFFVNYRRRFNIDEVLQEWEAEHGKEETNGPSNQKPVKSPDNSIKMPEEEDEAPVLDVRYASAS

As for `CC(=O)N[C@@H](CCCCN)C(=O)N[C@@H](C)C(=O)N[C@@H](C)C(=O)N[C@@H](CCCNC(=N)N)C(=O)N[C@@H](CCCCCC(=O)NO)C(=O)N[C@@H](CO)C(=O)N[C@@H](C)C(N)=O` [compound 12, H3(23–29)K27Hd] (HELM PEPTIDE1{[ac].K.A.A.R.[O=C([C@H](CCCCCC(=O)[*:3])N[*:1])[*:2]].S.A.[am]}|CHEM1{[ON[*:1]]}$PEPTIDE1,CHEM1,6:R3-1:R1$$$V2.0), the IC50 was 50 nM in assay [1] (HDAC complexes tables, read-out: IC50, HMR (NuRD)); 133 nM in assay [1] (setting [9]); 134 nM in assay [1] (inhibitor library experiment, 20 min preincubation rt, fluorescence, read-out: IC50 of HMR against histone peptide library); 106 nM in assay [3]; 151 nM in assay [4]; 209 nM in assay [5]. Also, the IC50 in assay [6] amounted to 128 nM; in assay [7], 145 nM. The dissociation constant (Kd) in assay [2] is 60 nM.
For `CC(=O)N[C@@H](C)C(=O)N[C@@H](C)C(=O)N[C@@H](C)C(=O)N[C@@H](CCCNC(=N)N)C(=O)N[C@@H](CCCCCC(=O)NO)C(=O)N[C@@H](CO)C(=O)N[C@@H](C)C(N)=O` [compound 21, H3(23–29)K23A K27Hd] (HELM PEPTIDE1{[ac].A.A.A.R.[O=C([C@H](CCCCCC(=O)[*:3])N[*:1])[*:2]].S.A.[am]}|CHEM1{[ON[*:1]]}$PEPTIDE1,CHEM1,6:R3-1:R1$$$V2.0), the IC50 in assay [1] (setting [9]) turned out to be 26200 nM; in assay [8], 18300 nM; in assay [3], 20100 nM; in assay [4], 18100 nM; in assay [5] it was 28700 nM; in assay [6], 17400 nM. In assay [7], this compound yielded a half-maximal inhibitory concentration (IC50) of 71600 nM.
As for `CC(=O)N[C@@H](CCCCN)C(=O)N[C@@H](C)C(=O)N[C@@H](C)C(=O)N[C@@H](CCCNC(=N)N)C(=O)N[C@@H](CCCCCC(=O)NO)C(=O)N[C@@H](C)C(=O)N[C@@H](C)C(N)=O` [compound 23, H3 (23-29) K27Hd S28A] (HELM PEPTIDE1{[ac].K.A.A.R.[O=C([C@H](CCCCCC(=O)[*:3])N[*:1])[*:2]].A.A.[am]}|CHEM1{[ON[*:1]]}$PEPTIDE1,CHEM1,6:R3-1:R1$$$V2.0), the IC50 is 308 nM in assay [1] (setting [9]); 234 nM in assay [8]; 342 nM in assay [3]; 480 nM in assay [4]; 408 nM in assay [5]; 379 nM in assay [6]. This compound also returned an IC50 in assay [7] of 272 nM.
In the case of `CC(=O)N[C@@H](CCCCN)C(=O)NCC(=O)N[C@@H](CC(C)C)C(=O)NCC(=O)N[C@@H](CCCCCC(=O)NO)C(=O)NCC(=O)NCC(N)=O` [compound 27, H4(8–14)K12Hd] (HELM PEPTIDE1{[ac].K.G.L.G.[O=C([C@H](CCCCCC(=O)[*:3])N[*:1])[*:2]].G.G.[am]}|CHEM1{[ON[*:1]]}$PEPTIDE1,CHEM1,6:R3-1:R1$$$V2.0), the Kd in assay [2] turned out to be 288 nM.
